Bounds are passed on as bounds.

The target of one test is TRKA (Homo sapiens (Human), UniProt P04629). Briefly: KINOMEscan kinase binding assay (DiscoveRx). As to the method:
Kinase binding assays were performed at DiscoveRx using the general KINOMEscan Kd Protocol (Fabian, M. A. et al., “A small molecule-kinase interaction map for clinical kinase inhibitors,” Nat. Biotechnol. 2005, 23(3):329-36). For most assays, kinase-tagged T7 phage strains were prepared in an E. coli host derived from the BL21 strain. E. coli were grown to log-phase and infected with T7 phage and incubated with shaking at 32° C. until lysis. The lysates were centrifuged and filtered to remove cell debris. The remaining kinases were produced in HEK-293 cells and subsequently tagged with DNA for qPCR detection. Streptavidin-coated magnetic beads were treated with biotinylated small molecule ligands for 30 minutes at room temperature to generate affinity resins for kinase assays. The liganded beads were blocked with excess biotin and washed with blocking buffer (SeaBlock (Pierce), 1% BSA, 0.05% Tween 20, 1 mM DTT) to remove unbound ligand and to reduce nonspecific binding. […] All reactions were performed in polystyrene 96-well plates in a final volume of 0.135 mL. […] The beads were then re-suspended in elution buffer (1×PBS, 0.05% Tween 20, 0.5 μM non-biotinylated affinity ligand) and incubated at room temperature with shaking for 30 minutes. The kinase concentration in the eluates was measured by qPCR.

Test [1] concerns Colorectal cell line KM12 (harboring endogenous TPM3-TRKA fusion gene). Briefly: KM12 cell proliferation assay (CellTiter-Glo). As to conditions: Homo sapiens, 72 hours incubation, read-out: KM 12 cell prolif. IC50. It counts as cell-based. As to the method:
Colorectal cell lines KM 12 (harboring endogenous TPM3-TRKA fusion gene) cells were cultured in DMEM medium, supplemented with 10% fetal bovine serum and 100 U/mL of penicillin/streptomycin. 5000 cells were seeded in 384 well white plate for 24 hours before compounds treatment. Cell proliferation was measured using CellTiter-Glo luciferase-based ATP detection assay (Promega) following the manufactures's protocol after 72 hours incubation. IC50 determinations were performed using GraphPad Prism software (GraphPad, Inc., San Diego, Calif.).
Alternatively: Colorectal cell line KM12 (harboring endogenous TPM3-TRKA fusion gene) cells were cultured in DMEM medium, supplemented with 10% fetal bovine serum and 100 U/mL of penicillin/streptomycin. […] 5000 cells were seeded in 384 well white plate for 24 hours before compounds treatment. Cell proliferation was measured using CellTiter-Glo luciferase-based ATP detection assay (Promega) following the manufactures's protocol after 72 hours incubation. IC50 determinations were performed using GraphPad Prism software (GraphPad, Inc., San Diego, Calif.).
A general note: Cellular ATP, detected with luciferase, serves as a proxy for viable cell number.

The test system of test [2] is Essential thrombocythemia cell line SET-2 cells (harboring endogenous JAK2 point mutation). Briefly: SET-2 cell proliferation assay (CellTiter-Glo). The following applies: Homo sapiens, 72 hours incubation, read-out: SET2 cell proli. IC50. The class given is cell-based.
Test [3] deals with T cell lymphoma Karpas-299 cell line (harboring endogenous NPM-ALK fusion gene). Briefly: Karpas-299 cell proliferation assay (CellTiter-Glo). The class given is cell-based. The following applies: Homo sapiens, 72 hours incubation, read-out: Karpas 299 cell proli. IC50.
A further test deals with JAK2 (Homo sapiens (Human), UniProt O60674). Briefly: KINOMEscan kinase binding assay (DiscoveRx). As to the method: (§1) For most assays, kinase-tagged T7 phage strains were prepared in an E. coli host derived from the BL21 strain. E. coli were grown to log-phase and infected with T7 phage and incubated with shaking at 32° C. until lysis. The lysates were centrifuged and filtered to remove cell debris. The remaining kinases were produced in HEK-293 cells and subsequently tagged with DNA for qPCR detection. […] The liganded beads were blocked with excess biotin and washed with blocking buffer (SeaBlock (Pierce), 1% BSA, 0.05% Tween 20, 1 mM DTT) to remove unbound ligand and to reduce nonspecific binding. […] All reactions were performed in polystyrene 96-well plates in a final volume of 0.135 mL. […] The kinase concentration in the eluates was measured by qPCR.

Another test has as its target ALK (Homo sapiens (Human), UniProt Q9UM73). Briefly: KINOMEscan kinase binding assay (DiscoveRx). As for the experimental part:
as §1

TRKA, sequence (P04629 33-796): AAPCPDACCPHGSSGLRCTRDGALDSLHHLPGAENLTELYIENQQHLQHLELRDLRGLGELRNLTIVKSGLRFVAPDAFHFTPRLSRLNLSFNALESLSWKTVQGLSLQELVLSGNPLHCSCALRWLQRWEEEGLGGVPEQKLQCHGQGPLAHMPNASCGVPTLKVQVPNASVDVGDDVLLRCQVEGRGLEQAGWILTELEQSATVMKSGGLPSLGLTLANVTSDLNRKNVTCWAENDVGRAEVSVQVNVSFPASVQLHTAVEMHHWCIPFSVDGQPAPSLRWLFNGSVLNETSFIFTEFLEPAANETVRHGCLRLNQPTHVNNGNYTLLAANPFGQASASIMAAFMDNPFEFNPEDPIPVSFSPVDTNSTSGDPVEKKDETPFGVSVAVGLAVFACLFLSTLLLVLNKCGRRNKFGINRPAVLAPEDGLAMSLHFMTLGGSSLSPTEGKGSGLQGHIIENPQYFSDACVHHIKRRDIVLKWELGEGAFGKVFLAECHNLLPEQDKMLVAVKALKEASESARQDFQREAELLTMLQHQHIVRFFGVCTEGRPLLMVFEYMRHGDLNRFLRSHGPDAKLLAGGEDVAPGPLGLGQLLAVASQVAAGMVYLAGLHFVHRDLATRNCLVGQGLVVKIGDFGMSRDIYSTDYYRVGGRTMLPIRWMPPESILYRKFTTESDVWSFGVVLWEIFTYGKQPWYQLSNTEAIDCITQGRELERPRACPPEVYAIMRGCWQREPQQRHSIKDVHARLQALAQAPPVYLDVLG
JAK2, sequence (O60674 whole entry): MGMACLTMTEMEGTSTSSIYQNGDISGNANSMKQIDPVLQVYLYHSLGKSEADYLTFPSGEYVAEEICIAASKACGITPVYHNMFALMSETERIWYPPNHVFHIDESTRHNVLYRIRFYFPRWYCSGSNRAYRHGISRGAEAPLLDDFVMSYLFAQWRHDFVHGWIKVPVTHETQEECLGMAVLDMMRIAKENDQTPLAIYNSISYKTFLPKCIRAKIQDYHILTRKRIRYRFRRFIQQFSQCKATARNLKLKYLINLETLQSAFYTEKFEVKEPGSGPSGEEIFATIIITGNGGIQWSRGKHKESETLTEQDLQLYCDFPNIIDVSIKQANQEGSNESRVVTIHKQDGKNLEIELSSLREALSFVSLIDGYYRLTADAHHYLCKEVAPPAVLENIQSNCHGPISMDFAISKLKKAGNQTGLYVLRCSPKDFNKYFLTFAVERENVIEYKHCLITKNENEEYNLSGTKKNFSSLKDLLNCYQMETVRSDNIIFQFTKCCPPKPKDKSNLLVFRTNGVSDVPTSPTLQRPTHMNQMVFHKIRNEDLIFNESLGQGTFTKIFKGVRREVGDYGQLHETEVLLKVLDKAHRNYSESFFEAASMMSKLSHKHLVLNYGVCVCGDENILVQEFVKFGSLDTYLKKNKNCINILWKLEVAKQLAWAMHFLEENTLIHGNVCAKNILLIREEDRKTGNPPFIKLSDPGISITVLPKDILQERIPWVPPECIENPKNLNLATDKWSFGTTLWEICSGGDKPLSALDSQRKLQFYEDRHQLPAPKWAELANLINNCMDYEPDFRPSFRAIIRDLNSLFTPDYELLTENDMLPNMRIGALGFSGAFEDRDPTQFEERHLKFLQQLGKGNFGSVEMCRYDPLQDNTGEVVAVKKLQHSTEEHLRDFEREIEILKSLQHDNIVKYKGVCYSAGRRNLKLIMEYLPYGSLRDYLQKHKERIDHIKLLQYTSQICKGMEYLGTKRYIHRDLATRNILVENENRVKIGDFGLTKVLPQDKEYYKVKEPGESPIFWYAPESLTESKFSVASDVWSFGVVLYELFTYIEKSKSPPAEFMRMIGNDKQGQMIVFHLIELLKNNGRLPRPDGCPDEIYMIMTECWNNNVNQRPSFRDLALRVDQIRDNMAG
ALK, sequence (Q9UM73 19-1620): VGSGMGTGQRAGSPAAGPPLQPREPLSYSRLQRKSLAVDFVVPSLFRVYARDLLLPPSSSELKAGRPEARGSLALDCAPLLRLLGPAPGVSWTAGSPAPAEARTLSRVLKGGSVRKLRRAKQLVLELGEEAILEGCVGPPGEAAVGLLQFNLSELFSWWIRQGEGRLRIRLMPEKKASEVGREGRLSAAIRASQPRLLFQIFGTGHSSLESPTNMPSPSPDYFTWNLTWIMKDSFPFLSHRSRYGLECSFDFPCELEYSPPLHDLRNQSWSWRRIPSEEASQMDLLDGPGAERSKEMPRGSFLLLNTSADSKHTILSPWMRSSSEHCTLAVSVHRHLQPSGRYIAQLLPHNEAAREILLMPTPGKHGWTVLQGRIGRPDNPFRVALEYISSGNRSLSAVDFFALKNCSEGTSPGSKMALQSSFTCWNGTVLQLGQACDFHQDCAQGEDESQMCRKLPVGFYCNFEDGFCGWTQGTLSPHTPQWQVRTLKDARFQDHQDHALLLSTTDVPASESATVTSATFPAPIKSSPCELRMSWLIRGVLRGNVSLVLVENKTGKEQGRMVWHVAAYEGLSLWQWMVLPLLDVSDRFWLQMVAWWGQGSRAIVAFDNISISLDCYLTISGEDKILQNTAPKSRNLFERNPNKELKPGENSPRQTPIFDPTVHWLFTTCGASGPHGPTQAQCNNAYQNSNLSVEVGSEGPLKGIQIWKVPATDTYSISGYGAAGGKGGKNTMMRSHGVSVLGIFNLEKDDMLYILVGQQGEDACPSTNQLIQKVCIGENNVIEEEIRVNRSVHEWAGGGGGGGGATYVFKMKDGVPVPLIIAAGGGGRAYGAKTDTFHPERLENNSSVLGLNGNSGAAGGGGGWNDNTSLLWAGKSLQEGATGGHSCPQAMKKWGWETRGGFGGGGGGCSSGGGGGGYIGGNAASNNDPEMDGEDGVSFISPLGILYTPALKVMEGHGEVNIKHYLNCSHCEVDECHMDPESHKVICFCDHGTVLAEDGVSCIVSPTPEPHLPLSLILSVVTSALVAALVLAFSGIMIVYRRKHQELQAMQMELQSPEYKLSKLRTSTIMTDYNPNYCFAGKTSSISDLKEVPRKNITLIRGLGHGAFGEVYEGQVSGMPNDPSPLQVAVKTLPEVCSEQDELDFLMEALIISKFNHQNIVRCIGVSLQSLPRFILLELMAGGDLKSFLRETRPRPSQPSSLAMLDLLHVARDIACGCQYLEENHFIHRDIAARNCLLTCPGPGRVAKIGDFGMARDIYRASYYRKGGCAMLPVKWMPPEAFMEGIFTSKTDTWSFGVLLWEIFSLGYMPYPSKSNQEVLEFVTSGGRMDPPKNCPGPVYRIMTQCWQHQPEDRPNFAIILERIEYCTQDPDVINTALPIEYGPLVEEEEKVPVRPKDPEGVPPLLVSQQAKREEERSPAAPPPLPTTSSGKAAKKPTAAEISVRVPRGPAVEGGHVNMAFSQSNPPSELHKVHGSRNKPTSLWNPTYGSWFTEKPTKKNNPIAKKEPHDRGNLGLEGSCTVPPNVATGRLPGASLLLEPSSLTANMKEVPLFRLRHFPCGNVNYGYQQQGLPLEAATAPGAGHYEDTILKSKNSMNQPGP

`CN1Cc2cc(F)ccc2OCCNC(=O)c2cnc3ccc1nn23` [Example 42, 10-fluoro-7-methyl-7,8,15,16-tetrahydro-3,6-ethenoimidazo[5,1-f][1,4,7,8,10]benzoxatetraazacyclotridecin-17(14H)-one] came in with a Kd at TRKA of 0.088 nM. Further, the IC50 in test [1] came out at 4 nM; in test [2], 2000 nM; in test [3] it was 3400 nM.
For the molecule `CCN1Cc2cc(F)ccc2OCCNC(=O)c2cnn3ccc1nc23` [Example 43, 14-ethyl-11-fluoro-6,7,13,14-tetrahydro-1,15-ethenopyrazolo[4,3-f][1,4,8,10]benzoxatriazacyclotridecin-4(5H)-one], the values for the Kd on JAK2 and on TRKA were 3.7 nM and 0.086 nM, respectively. Also, the values for the IC50 in test [1], in test [2] and in test [3] were 2.6 nM, 1700 nM and 2800 nM, respectively.
Consider `CC(C)N1Cc2cc(F)ccc2OCCNC(=O)c2cnn3ccc1nc23` [Example 45, 11-fluoro-14-(propan-2-yl)-6,7,13,14-tetrahydro-1,15-ethenopyrazolo[4,3-f][1,4,8,10]benzoxatriazacyclotridecin-4(5H)-one], for which the Kd on JAK2 stood at 7.8 nM; at TRKA, 0.082 nM. Moreover, the half-inhibitory concentration (IC50) in test [1] is 0.35 nM; in test [2], 8000 nM; in test [3], over 10000 nM.
For the molecule `CN1Cc2ccccc2OCCNC(=O)c2cnn3ccc1nc23` [Example 49, 14-methyl-6,7,13,14-tetrahydro-1,15-ethenopyrazolo[4,3-f][1,4,8,10]benzoxatriazacyclotridecin-4(5H)-one], the Kd on JAK2 worked out at 24 nM; at TRKA, 0.14 nM. Moreover, the results for the IC50 in test [1], in test [2] and in test [3] were 6.7 nM, 7000 nM and 3900 nM, respectively.
The like results for `O=C1NCCOc2ccc(F)cc2CNc2ccn3ncc1c3n2` [Example 50, 11-fluoro-6,7,13,14-tetrahydro-1,15-ethenopyrazolo[4,3-f][1,4,8,10]benzoxatriazacyclotridecin-4(5H)-one] were, in that order, 0.57 nM, 0.2 nM, 74 nM, 6000 nM and 4100 nM.
On to `CN1Cc2cc(F)ccc2OCCCNC(=O)c2cnn3ccc1nc23` [Example 75, 12-fluoro-15-methyl-5,6,7,8,14,15-hexahydro-4H-1,16-ethenopyrazolo[4,3-g][1,5,9,11]benzoxatriazacyclotetradecin-4-one], for which the values for the Kd at JAK2 and at TRKA were 6.5 nM and 0.015 nM, respectively. Also, the IC50 was 0.6 nM in test [1], 4440 nM in test [2] and 3900 nM in test [3].
For the molecule `O=C1NCCOc2ccc(F)cc2C(CO)Nc2ccn3ncc1c3n2` (stereo not shown) [Example 98, 11-fluoro-13-(hydroxymethyl)-6,7,13,14-tetrahydro-1,15-ethenopyrazolo[4,3-f][1,4,8,10]benzoxatriazacyclotridecin-4(5H)-one], the Kd at ALK turned out to be 14 nM; at JAK2, 0.74 nM. The IC50 in test [1] was found to be 7.4 nM; in test [2] it was 808 nM; in test [3], 281 nM.
`CC1c2cc(F)ccc2OCCNC(=O)c2cnn3ccc(nc23)N1C` (stereo not shown) [Example 100, 11-fluoro-13,14-dimethyl-6,7,13,14-tetrahydro-1,15-ethenopyrazolo[4,3-f][1,4,8,10]benzoxatriazacyclotridecin-4(5H)-one]: the IC50 in test [1] was 0.6 nM; in test [2] it was 5830 nM; in test [3] it was 5360 nM.
The matching figures for `CC(C)(O)CN1Cc2cc(F)ccc2OCCNC(=O)c2cnn3ccc1nc23` [Example 101, 11-fluoro-14-(2-hydroxy-2-methylpropyl)-6,7,13,14-tetrahydro-1,15-ethenopyrazolo[4,3-f][1,4,8,10]benzoxatriazacyclotridecin-4(5H)-one]: over 1000 nM, 6000 nM and over 10000 nM.
The matching figures for `O=C1NCCOc2ccc(F)cc2CCc2ccn3ncc1c3n2` [Example 102, 11-fluoro-6,7,13,14-tetrahydro-1,15-ethenopyrazolo[4,3-f][1,4,8]benzoxadiazacyclotridecin-4(5H)-one]: 1.2 nM, 2450 nM and 2300 nM.
Consider `CN1Cc2cc(F)ccc2SCCNC(=O)c2cnn3ccc1nc23` [Example 104, 11-fluoro-14-methyl-6,7,13,14-tetrahydro-1,15-ethenopyrazolo[4,3-f][1,4,8,10]benzothiatriazacyclotridecin-4(5H)-one], for which the values for the IC50 in test [1], in test [2] and in test [3] were 0.3 nM, 2350 nM and 5750 nM, respectively.
Regarding `CN1CCC(N2Cc3cc(F)ccc3OCCNC(=O)c3cnn4ccc2nc34)C1` (stereo not shown) [Example 105, 11-fluoro-14-(1-methylpyrrolidin-3-yl)-6,7,13,14-tetrahydro-1,15-ethenopyrazolo[4,3-f][1,4,8,10]benzoxatriazacyclotridecin-4(5H)-one], the values for the IC50 in test [1], in test [2] and in test [3] were 500 nM, over 10000 nM and over 5000 nM, respectively.
With `CN1Cc2cc(F)ccc2[S+]([O-])CCNC(=O)c2cnn3ccc1nc23` (stereo not shown) [Example 106, 11-fluoro-14-methyl-6,7,13,14-tetrahydro-1,15-ethenopyrazolo[4,3-f][1,4,8,10]benzothiatriazacyclotridecin-4(5H)-one 8-oxide], the IC50 was 176 nM in test [1], over 10000 nM in test [2] and over 10000 nM in test [3].
Turning to `CN1Cc2cc(F)ccc2S(=O)(=O)CCNC(=O)c2cnn3ccc1nc23` [Example 107, 11-fluoro-14-methyl-6,7,13,14-tetrahydro-1,15-ethenopyrazolo[4,3-f][1,4,8,10]benzothiatriazacyclotridecin-4(5H)-one 8,8-dioxide], the IC50 in test [1] was 75.6 nM; in test [2], 3000 nM; in test [3] it was over 10000 nM.
Turning to `C[C@H]1CNC(=O)c2cnn3ccc(nc23)CCc2cc(F)ccc2O1` [Example 108, (7S)-11-fluoro-7-methyl-6,7,13,14-tetrahydro-1,15-ethenopyrazolo[4,3-f][1,4,8]benzoxadiazacyclotridecin-4(5H)-one], the values for the IC50 in test [1], in test [2] and in test [3] were 3.6 nM, 870 nM and 619 nM, respectively.
Take `C[C@H]1COc2ccc(F)cc2[C@@H](C)Nc2ccn3ncc(c3n2)C(=O)N1` [Example 109, (6S,13R)-11-fluoro-6,13-dimethyl-6,7,13,14-tetrahydro-1,15-ethenopyrazolo[4,3-f][1,4,8,10]benzoxatriazacyclotridecin-4(5H)-one]: the IC50 was determined as 0.86 nM in test [1], 398 nM in test [2] and 225 nM in test [3].
With `C[C@@H]1COc2ccc(F)cc2[C@@H](C)Nc2ccn3ncc(c3n2)C(=O)N1` [Example 110, (6R,13R)-11-fluoro-6,13-dimethyl-6,7,13,14-tetrahydro-1,15-ethenopyrazolo[4,3-f][1,4,8,10]benzoxatriazacyclotridecin-4(5H)-one], the IC50 in test [1] is 0.7 nM; in test [2] it was 219 nM; in test [3] it was 163 nM.
The like results for `C[C@H]1CNC(=O)c2cnn3ccc(nc23)N[C@H](CO)c2cc(F)ccc2O1` [Example 111, (7S,13S)-11-fluoro-13-(hydroxymethyl)-7-methyl-6,7,13,14-tetrahydro-1,15-ethenopyrazolo[4,3-f][1,4,8,10]benzoxatriazacyclotridecin-4(5H)-one] were, in that order, 76 nM, 2000 nM and 329 nM.

As usually defined, the Kd is a measure of binding affinity in units of concentration. Higher therefore signals weaker binding. The IC50 is the concentration that inhibits the measured activity by half.
